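Where inhibition never reached the appropriate level, the endpoint shown equals the highest concentration tested. Otherwise, values were interpolated linearly from a five-concentration, 48-hour dose response in 96-well plates. Definition used: TGI = concentration required for complete inhibition of growth.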
Experiments:
Test in all cases: growth of human tumour cells (NCI), 48 h
[1] = system: RPMI-8226 leukemia
[2] = system: DU-145 prostate
[3] = system: MDA-MB-435
[4] = system: NCI-H226 lung
[5] = system: SK-MEL-2 melanoma
[6] = system: NCI-H522 lung
[7] = system: SR leukemia
[8] = system: SF-295 CNS
[9] = system: HCT-116 colon
[10] = system: OVCAR-5 ovarian
[11] = system: HT29 colon

Structure (SMILES) | TGI [1] [µM] | TGI [2] [µM] | TGI [3] [µM] | TGI [4] [µM] | TGI [5] [µM] | TGI [6] [µM] | TGI [7] [µM] | TGI [8] [µM] | TGI [9] [µM] | TGI [10] [µM] | TGI [11] [µM]
O=C1ON=C2C3CC4CC12CC1(C3)C(=O)ON=C41 | > 100 | > 100 | > 100 | > 100 | > 100 | > 100 | > 100 | > 100 | > 100 | > 100 | > 100
CSc1nc2c(=O)n(-c3ccccc3)c(=S)n(-c3ccccc3)c2s1 | > 100 | > 100 | > 100 | 86.3 | > 100 | > 100 | > 100 | > 100 | > 100 | > 100 | > 100
CC1(C)CCC(=O)NC1CC(=O)CC1NC(=O)CCC1(C)C (centres undefined) | > 100 | > 100 | > 100 | > 100 | > 100 | > 100 | > 100 | > 100 | > 100 | > 100 | > 100
CCOC(=O)Cn1c(=O)c2cc(-c3ccccc3)cc3c(Cl)nc4c(OC)c(OC)cc1c4c32 | 46.8 | > 61 | 38.3 | > 100 | 35.4 | 39.4 | > 100 | > 100 | 29.1 | > 100 | 48.1
CCN(CC)CCCOc1cc2c(cc1OC)C(=O)N1CCC[C@H]1C=N2 | 53.8 | > 100 | 59.6 | 65.8 | > 100 | 54 | > 100 | 75.5 | > 100 | > 100 | 39.5
CCCCCCCCCCCCCCCCCCOCC(COP(=O)([O-])OCC[N+](C)(C)C)OC (centres undefined) | 45.7 | > 100 | > 100 | 44.7 | 54.9 | 32.7 | > 60.1 | 29.7 | 43.5 | 37 | 23.5
N#Cc1nc(CCC(c2nc(C#N)c(N)o2)N2C(=O)c3ccccc3C2=O)oc1N (centres undefined) | > 100 | > 100 | > 100 | > 100 | > 100 | > 100 | > 100 | > 100 | > 100 | > 100 | > 100
O=C1c2ccccc2-c2nc(/C=C/c3ccccc3)cc3c2c1nc1ccccc13 | > 100 | > 100 | 26.9 | > 100 | > 100 | 30.2 | 50.6 | > 100 | > 100 | > 100 | 92
c1ccc2c(c1)CC1COc3ccccc3C1O2 (centres undefined) | > 100 | > 100 | > 100 | > 100 | > 100 | > 100 | > 100 | > 100 | > 100 | > 100 | > 100
COc1ccc(-c2cc(-c3cc(F)c(Cl)cc3Cl)on2)cc1OC | > 100 | > 100 | 16.9 | 80.6 | 97.7 | > 100 | 13.1 | > 100 | > 100 | > 100 | > 100
c1ccc2nc(CCC3CCCCN3)ccc2c1 (centres undefined) | > 100 | > 100 | > 100 | > 100 | > 100 | > 100 | > 100 | > 100 | > 100 | > 100 | > 100
C=CCCCCCCCCCOC1C=CC(OC(C)=O)C(COC(C)=O)O1 (centres undefined) | 84.6 | > 100 | > 100 | > 100 | > 100 | > 100 | > 100 | > 100 | > 100 | > 100 | 48.1
CC(=O)N1c2ccccc2C(C)C1c1[nH]c2ccccc2c1C (centres undefined) | 73 | > 100 | 50.4 | 72.3 | 40.2 | 49.2 | 51.8 | 32 | 41.6 | 34 | 57.1
CC1CCc2sc3[nH]c(=S)n(-c4ccccc4)c(=O)c3c2C1 (centres undefined) | > 100 | > 100 | > 100 | > 100 | 93.7 | > 100 | > 100 | > 100 | > 100 | > 100 | > 100
